Test results from paper PMC4536076, “Chemical Library Screening and Structure-Function Relationship Studies Identify Bisacodyl as a Potent and Selective Cytotoxic Agent Towards Quiescent Human Glioblastoma Tumor Stem-Like Cells” (PLoS ONE, 2015).
Structures can show the parent of a compound that is named as a salt. Where two headings read alike, the source gives them in different places.

Experiments:
[1] = tested on: fetal neural stem cells (f-NSC); assay: ATP-Glo dose-response, fetal neural stem cells; format: cell-based; settings: Homo sapiens, Neural stem cell; ATP Glo readout, 24 h treatment
[2] = tested on: proliferating TG1 GSCs; settings: primary screen, 50 μM, 24 h
Protocol: (§1) Proliferating or quiescent TG1 GSCs were seeded (30 000 and 40 000 viable cells/well, respectively) into 96-well opaque bottom plates (Greiner) with the Biomek FX robot (Beckman Coulter). Each compound from the Prestwick Library was then added (final concentration: 50 μM; 1% DMSO). Each molecule was tested once. Negative control wells (12/96 per assay plate) contained cells treated with 1% DMSO (final concentration) and positive control wells (4/96 per assay plate) contained cells treated with the fungal toxin ophiobolin A (Sigma Aldrich) at 50 μM with 1% DMSO. […] Luminescence in each well was measured with the Victor3 plate reader (PerkinElmer).
(§2) Relative ATP levels in each well were determined by calculating the percentage of luminescent signal in the well with respect to the average signal measured in negative control wells.
(§3) Primary screen hits were further tested in duplicate, at two concentrations (50 and 5 μM) on proliferating and quiescent TG1 GSCs. Cell plating and treatment with compounds were as for the primary screen. Hit selection/confirmation criteria for quiescent cells were as described above.

[3] = tested on: proliferating TG1 GSCs; assay: ATP-Glo dose-response, proliferating TG1 GSCs; format: cell-based, human; settings: Homo sapiens, 24 h, 24 h
Protocol: (§4) The EC50 value was determined for each compound by fitting the data points according to the following equation: y=Smax+Smin*(x*1/EC50)^n/1+(x*1/EC50)^n where y represents the expected response, x is the chemical compound concentration, S max and S min are the maximum and minimum responses recorded, respectively and n is the Hill coefficient. Curve fitting was performed using Microsoft Excel Solver component.
(§5) Proliferating or quiescent TG1 cells were seeded in 50 μL of their respective media (30 000 and 40 000 viable cells/well, respectively) into 96-well opaque bottom plates (Greiner, Courtaboeuf, France). Compound treatment was performed by adding 50 μL of compound solutions (in the presence of 2% DMSO in culture medium). […] All compounds were tested in triplicate in each experiment. Independent experiments were performed at least twice for almost all of the compounds.

[4] = tested on: quiescent TG1 GSCs; assay: ATP-Glo dose-response, quiescent TG1 GSCs; format: cell-based, human; settings: for EC50: Homo sapiens, 24 h; for fold increase in EC50 (activity decrease) compared to DDPM (compound 2): quiescent TG1 GSCs
Protocol: as §4, §5

[5] = tested on: proliferating OB1 GSCs; assay: ATP-Glo dose-response, proliferating OB1 GSCs; format: cell-based; settings: Homo sapiens; ATP Glo readout, 24 h treatment; read-out: P OB1 GSCs EC50
Protocol: as §4
(§6) Similar dose response curves were performed using GSCs isolated from GBM of two other patients (TG16 and OB1 GSCs) grown under proliferating and quiescent conditions.

[6] = tested on: quiescent TG16 GSCs; assay: ATP-Glo dose-response, quiescent TG16 GSCs; format: cell-based, human; settings: ATP Glo readout, 24 h treatment, read-out: Q TG16 GSCs EC50
Protocol: as §4, §6

[7] = tested on: primary astrocytes (HA cells); assay: ATP-Glo dose-response, primary astrocytes; format: cell-based, human; settings: ATP Glo readout, 24 h treatment
[8] = tested on: HEK 293 cells; assay: ATP-Glo dose-response, HEK 293 cells; format: cell-based, human; settings: ATP Glo readout, 24 h treatment
Protocol: as §4, with “component. […]” for “component.”

[9] = tested on: quiescent OB1 GSCs; assay: ATP-Glo dose-response, quiescent OB1 GSCs; format: cell-based, human; settings: ATP Glo readout, 24 h treatment, read-out: Q OB1 GSCs EC50
Protocol: as §4, §6

[10] = tested on: quiescent TG1 GSCs; settings: primary screen, 50 μM, 24 h
Protocol: as §1, §2, §3

[11] = tested on: proliferating TG16 GSCs; assay: ATP-Glo dose-response, proliferating TG16 GSCs; format: cell-based, human; settings: ATP Glo readout, 24 h treatment, read-out: P TG16 GSCs EC50
Protocol: as §4, §6

[12] = SAR study, ATP-Glo cell survival assay, triplicate, read-out: Proliferating TG1 GSCs EC50
[13] = SAR study, ATP-Glo cell survival assay, triplicate, read-out: Quiescent TG1 GSCs EC50
[14] = ATP Glo readout, 24 h treatment, n = 3, read-out: P TG1 GSCs EC50
[15] = ATP Glo readout, 24 h treatment, n = 3, read-out: Q TG1 GSCs EC50

Q: `COc1ccc(CCN2CCC(Nc3nc4ccccc4n3Cc3ccc(F)cc3)CC2)cc1` [Astemizole] was tested. Which EC50 [1] did it give?
A: 6.3 ± 0.2 µM

Q: And the “Activity on proliferating TG1 GSCs (hit compounds reducing ATP levels)” value [2]?
A: yes

Q: With `CC(=O)Oc1ccc(C(c2ccc(OC(C)=O)cc2)c2cccc[n+]2C)cc1` [Compound 14, 2-(bis(4-acetoxyphenyl)methyl)-1-methylpyridinium iodide] as the molecule, how does the EC50 [3, 12] read?
A: > 100 µM

Q: And the EC50 [4, 13]?
A: > 100 µM

Q: What does the source list for `Oc1ccc(C(c2ccncc2)c2ccc(O)cc2)cc1` [Compound 16, 4,4'-dihydroxyphenyl-4-pyridinyl-methane]?
A: EC50 [3, 12]: > 100 µM; EC50 [4, 13]: 39 ± 2 µM; fold increase in EC50 (activity decrease) compared to DDPM (compound 2) [4]: ~ 40 fold

Q: For `O=c1cc(-c2ccc(O)c(O)c2)oc2cc(O)cc(O)c12` [Luteolin, 3',4',5,7-tetrahydroxy-flavone], which EC50 [3, 14] is on record?
A: > 100 µM

Q: What about the EC50 [5] of the same molecule?
A: > 100 µM

Q: What about the EC50 [4, 15] of the same molecule?
A: 20 ± 2 µM

Q: What about the EC50 ([6]; Homo sapiens) of the same molecule?
A: 34 ± 4 µM

Q: What about the EC50 ([7]; Homo sapiens, Astrocyte) of the same molecule?
A: > 100 µM

Q: What about the EC50 [1] of the same molecule?
A: 70 ± 36 µM

Q: What about the EC50 ([8]; Homo sapiens, HEK293) of the same molecule?
A: > 100 µM

Q: And the EC50 ([9]; Homo sapiens)?
A: 18 ± 4 µM

Q: What about the “Activity on quiescent TG1 GSCs (hit compounds reducing ATP levels)” value [10] of the same molecule?
A: yes

Q: And the EC50 ([11]; Homo sapiens)?
A: > 100 µM

Q: What does the source list for `Oc1ccc(C(c2ccc(O)cc2)c2ccccn2)cc1` [Compound 2, 4,4'-dihydroxydiphenyl(pyridine-2-yl)methane]?
A: EC50 [3, 12]: > 100 µM; EC50 [4, 13]: 1 ± 0.5 µM

Q: With `COc1ccc(C(c2ccc(O)cc2)c2ccccn2)cc1` (stereo not shown) [Compound 5, 4-hydroxyphenyl-4-methoxyphenyl-(pyridin-2-yl)-methane] as the molecule, how does the EC50 [3, 12] read?
A: > 100 µM

Q: And the EC50 [4, 13]?
A: 8 ± 6 µM

Q: What about the “fold increase in EC50 (activity decrease) compared to DDPM (compound 2)” value [4] of the same molecule?
A: 8 fold

Q: How did the EC50 [3, 14] turn out when `CC(Cc1ccccc1)NCCC(c1ccccc1)c1ccccc1` (stereo not shown) [Prenylamine lactate] was run?
A: 22 ± 3 µM

Q: What about the EC50 [5] of the same molecule?
A: 30 ± 7 µM

Q: What about the EC50 [4, 15] of the same molecule?
A: 27 ± 3 µM

Q: What about the EC50 ([6]; Homo sapiens) of the same molecule?
A: 42 ± 8 µM

Q: And the EC50 ([7]; Homo sapiens, Astrocyte)?
A: 30 ± 2 µM

Q: What about the EC50 [1] of the same molecule?
A: 9 ± 2 µM

Q: And the EC50 ([8]; Homo sapiens, HEK293)?
A: 25 ± 6 µM

Q: And the EC50 ([9]; Homo sapiens)?
A: 49 ± 4 µM

Q: And the “Activity on proliferating TG1 GSCs (hit compounds reducing ATP levels)” value [2]?
A: yes

Q: What about the “Activity on quiescent TG1 GSCs (hit compounds reducing ATP levels)” value [10] of the same molecule?
A: yes

Q: What about the EC50 ([11]; Homo sapiens) of the same molecule?
A: 32 ± 2 µM

Q: With `C#C[C@]1(O)CC[C@H]2[C@@H]3CCC4=CCCC[C@@H]4[C@H]3CC[C@@]21C` [Lynestrenol] as the molecule, how does the EC50 [3, 14] read?
A: 36 ± 2 µM

Q: And the EC50 [5]?
A: 26 ± 5 µM

Q: What about the EC50 [4, 15] of the same molecule?
A: 43 ± 8 µM

Q: And the EC50 ([6]; Homo sapiens)?
A: 28 ± 6 µM

Q: What about the EC50 ([7]; Homo sapiens, Astrocyte) of the same molecule?
A: 20 ± 1 µM

Q: What about the EC50 [1] of the same molecule?
A: 23 ± 5 µM

Q: And the EC50 ([8]; Homo sapiens, HEK293)?
A: 57 ± 8 µM

Q: And the EC50 ([9]; Homo sapiens)?
A: 56 ± 10 µM

Q: And the “Activity on proliferating TG1 GSCs (hit compounds reducing ATP levels)” value [2]?
A: yes

Q: What about the EC50 ([11]; Homo sapiens) of the same molecule?
A: 32 ± 2 µM

Q: Which EC50 [3, 14] does the source give for `CC(NCCC(c1ccccc1)c1ccccc1)c1ccccc1` (stereo not shown) [Fendiline hydrochloride] here?
A: 22 ± 1 µM

Q: What about the EC50 [5] of the same molecule?
A: 40 ± 13 µM

Q: And the EC50 [4, 15]?
A: 32 ± 1 µM

Q: And the EC50 ([6]; Homo sapiens)?
A: 45 ± 16 µM

Q: And the EC50 ([7]; Homo sapiens, Astrocyte)?
A: 42 ± 8 µM

Q: And the EC50 [1]?
A: 11 ± 1 µM

Q: What about the EC50 ([8]; Homo sapiens, HEK293) of the same molecule?
A: 34 ± 9 µM

Q: What about the EC50 ([9]; Homo sapiens) of the same molecule?
A: 48 ± 9 µM

Q: What about the “Activity on quiescent TG1 GSCs (hit compounds reducing ATP levels)” value [10] of the same molecule?
A: yes

Q: What about the EC50 ([11]; Homo sapiens) of the same molecule?
A: 42 ± 1 µM

Q: With `C=C(CC)C(=O)c1ccc(OCC(=O)O)c(Cl)c1Cl` [Ethacrynic acid] as the molecule, how does the EC50 [3, 14] read?
A: 81 ± 11 µM

Q: And the EC50 [5]?
A: 60 ± 20 µM

Q: What about the EC50 [4, 15] of the same molecule?
A: 41 ± 11 µM

Q: What about the EC50 ([6]; Homo sapiens) of the same molecule?
A: 12 ± 2 µM

Q: And the EC50 ([7]; Homo sapiens, Astrocyte)?
A: > 100 µM

Q: What about the EC50 [1] of the same molecule?
A: 21 ± 11 µM

Q: And the EC50 ([8]; Homo sapiens, HEK293)?
A: > 100 µM

Q: And the EC50 ([9]; Homo sapiens)?
A: 24 ± 3 µM

Q: And the “Activity on quiescent TG1 GSCs (hit compounds reducing ATP levels)” value [10]?
A: yes

Q: What about the EC50 ([11]; Homo sapiens) of the same molecule?
A: > 100 µM

Q: Beta-Escin was tested. Which EC50 [6] did it give?
A: 8 ± 1 µM

Q: What about the EC50 [7] of the same molecule?
A: 7 ± 1 µM

Q: What about the EC50 [8] of the same molecule?
A: 31 ± 1 µM

Q: And the EC50 [9]?
A: 6 ± 1 µM

Q: What about the “Activity on proliferating TG1 GSCs (hit compounds reducing ATP levels)” value [2] of the same molecule?
A: yes

Q: What about the “Activity on quiescent TG1 GSCs (hit compounds reducing ATP levels)” value [10] of the same molecule?
A: yes

Q: What about the EC50 [11] of the same molecule?
A: 6 ± 1 µM
